# Reference: patent US20190336484A1, “IL-8 INHIBITORS FOR USE IN THE TREATMENT OF SOME UROLOGICAL DISORDERS” (DOMPÉ FARMACEUTICI S.P.A., priority 2017, published 2019)
# Columns and labels:
# pharmacokinetic profile = settings: in vivo
# From the text: In fact, as it will be illustrated in the Experimental section, Compd.
# RWPE-1 cells = experiment: in vitro inflammatory model of prostatitis: ROS/RNS production (DCFH-DA assay) in RWPE-1 cells exposed to conditioned medium from activated U-937; format: cell-based, human; settings: then CM from activated U-937, measured after 3 hours
# From the text: Characterization of Compound 1 on an in vitro inflammatory model of prostatitis.
# In the aim of characterizing the Compound 1 on an in vitro inflammatory prostatitis model, human prostatic normal cells RWPE-1 (ATCC, lot number 61840713) are put in communication with activated macrophages; thus it induces an inflammatory micro-environment that enhances the production of reactive oxygen and nitrogen species (Debelec-Butuner et al, Mol. Carcinogen. 2014, 53:85-97).
# Human U-937 monocytes (ATCC, lot number 61795631) seeded at 50.000 cells/ml were differentiated with phorbol acetate ([…]) for 16 h. In order to stimulate cytokines production, lipopolysaccharide (LPS) was added (10 ng/ml for 24 h) and the conditioned medium (CM) collected.
# After 24 h in culture, RWPE-1 cells were treated with Compound 1 (0.1, 1 and 10 μM) and then exposed to CM from activated U-937. After 3 hours, reactive oxygen species (ROS) and Reactive Nitrogen species (RNS) were quantitatively measured by means of 2′,7′-dichlorodihydrofluorescein diacetate (DCFH-DA) assay. […] DCF is a highly fluorescent compound which can be detected by fluorescence spectroscopy with maximum excitation and emission spectra of 495 nm and 529 nm respectively (Games et al, J. Biochem. Biophys. Methods 2005, 65:45-80).
# [1] = system: testosterone-induced prostate hypertrophy (TBPH); experiment: Testosterone-induced prostate hypertrophy (TBPH), cystometry / urodynamic parameters; format: in vivo, Sprague-Dawley male rats; settings: 20 mg/kg oral twice daily, 5 days a week, 4 weeks
# From the text: The study was undertaken to test the effects of chronic oral administration of Compound 1 in rats with dysfunctional bladders in an experimental model of TBPH involving an estrogen-associated inflammation (Tatemichi et al, J Urol 2006, 176:1236-1241).
# (§1) A total 26 Sprague-Dawley male rats (250-270 g) were used for the study, according to the regulations of the Animal Ethics Committee (IACUC n.631). The rats were maintained under standard laboratory conditions at 12:12 light/dark cycle with free access to food pellets and tap water.
# BPH was induced treating animals once a week for 4 weeks with intramuscular hormones corresponding to testosterone enanthate (Geymonat, 12.5 mg)+17β-estradiol-velerate (SIGMA, 0.125 mg) in sesame oil. […]
# The conscious rats were placed in metabolic cages without restraint and the bladder catheters were connected via a T-tube to a pressure transducer (P23 DC; Statham Instruments Inc., Oxnard, Calif., USA) and a microinjection pump (CMA 100; Carnegie Medicine Aft Solna, Sweden). Micturition volumes were recorded with a fluid collector connected to a force displacement transducer (FT 03 D, Grass Instrument Co., Quincy, Mass., USA). […] Pressures and micturition volumes were recorded continuously with Acq Knowledge 3.8.1 software and a MP100 data acquisition system (Biopac Syst. Inc. Santa Barbara, Calif.) connected to a Grass polygraph (Model 7E, Grass Instrument Co).
# [2] = system: experimental autoimmune chronic prostatitis (EACP); experiment: Experimental autoimmune chronic prostatitis (EACP), mechanical allodynia by Von Frey test; format: in vivo, Lewis male rats; settings: 20 mg/kg oral twice daily
# From the text: The experimental autoimmune chronic prostatitis (EACP) can be easily generated in rats by specific immunization with syngeneic rat prostate homogenate. As a consequence of the strong inflammatory reaction, pelvic pain is generated, as already described (Zhang et al, Scand J Immunol 2011, 73:546-553; Zhang et al, Prostate 2012, 72:90-99; Wang et al, Int Urol Nephrol 2015, 47:307-316; Rudick et al, Am J Physiol Regul Integr Comp Physiol 2008, 294:R1268-1275).
# as §1, with “of 36 Lewis” for “26 Sprague-Dawley”, “g) from Charles River Italy” for “g)”
# Each animal was initially immunized with 2 mg of syngeneic prostate protein, diluted in saline, emulsified with complete Freund adjuvant containing 2 mg/ml of H37a mycobacterium (BD). Emulsion was produced by vortexing the mix for 15 min or till obtaining appropriate viscosity. A total volume of 0.2 mL in two sites was injected into each anesthetized rat at the dorsal tail base. A booster immunization was then repeated 13 days after the first injection. […]
# Effect of pelvic pain was evaluated 16 and 26 days after immunization by testing mechanical allodynia with Von Frey test. […]
# CXCR1/CXCR2 = settings: Bertini R. et al, Br J Pharmacol 2012; cited from earlier work
SMILES,absorption (plasma) (pharmacokinetic profile),total ROS and RNS production induced by conditioned medium (CM) (RWPE-1 cells; Compound 1 at 1 μM),total ROS and RNS production induced by conditioned medium (CM) (RWPE-1 cells; Compound 1 at 10 μM),post void residual volume (PVR) ([1]; FIG. 4),"area under pressure/time curve (AUC, detrusor over activity) ([1]; FIG. 5)","mechanical hypersensitivity and allodynia (abdomen/pelvic withdrawal threshold, Von Frey) ([2]; day 16 and 26 after immunization, compared to vehicle)","applied force eliciting response in Von Frey test, fold higher ([2]; vehicle group stimulated by 19 g, FIG. 3)",CXCR1/CXCR2 inhibitor character (CXCR1/CXCR2)
"C[C@H](C(=O)[O-])c1ccc(Nc2nc(C(F)(F)F)cs2)cc1.[Na+] [Compound 1, sodium salt of (2S)-2-(4-{[4-(trifluoromethyl)-1,3-thiazol-2-yl]amino}phenyl) propanoic acid]",rapid absorption,completely reverted the CM effect,more modest effect in comparison to the concentration 1 μM,numerical trend in reducing,numerical trend in reducing,partly decreased the mechanical hypersensitivity and allodynia reaching the statistical significance at day 26,"2,8 fold",
"C[C@@H](C(=O)NS(C)(=O)=O)c1ccc(OS(=O)(=O)C(F)(F)F)cc1.[Na] [Compd.2, sodium salt of R(−)-2-[(4′-trifluoromethanesulfonyloxy)phenyl]-N-methanesulfonyl propionamide]",,,,,,,,potent and selective dual CXCR1/CXCR2 non-competitive allosteric inhibitor
